Literature values in patent US20100080846A1, “DIPYRIDAMOLE AND […] ACID FORMULATIONS AND PROCESS FOR PREPARING SAME” (priority 2008, published 2010).

Settings: above a pH of 4

In the case of OCCN(CCO)c1nc(N2CCCCC2)c2nc(N(CCO)CCO)nc(N3CCCCC3)c2n1 [Dipyridamole, 2,6-bis-(diethanolamino)-4,8-dipiperidino-(5,4-d)-pyrimidine], the solubility in water is listed as “practically insoluble”.
